The numbers were not newly measured in patent publication US11549199B2, “Active apparel and fabric and coverings” (priority 2017, dated 2023), which cites them from elsewhere.

This data set has as its system gram-positive and gram-negative bacteria.

Take “Poly-hexamethylene biguanide (PHMB) hydrochloride”: the “activity against gram-positive and gram-negative bacteria” value is reported as “active”.
